Measurements published in patent US8937055B2, “Heterocyclic ring compound having muscle cell or adipocyte differentiation regulating action” (Takeda Pharmaceutical Company Limited, priority 2010, dated 2015).

Key:
[1] = test system: Mouse-derived myoblast line C2C12 cell; test: Cell differentiation promoting activity in myoblast (creatine kinase activity); format: cell-based; details: 48 h, 1 μM compound, 2 days in differentiation medium, CK activity without compound = 100%, read-out: creatinine kinase activating action (%)
Protocol: • (1) Mouse-derived myoblast line C2C12 cell (Dainippon Pharmaceutical Co., Ltd.) was subcultured in a high glucose Eagle's modified Dulbecco's medium (GIBCO) containing 10% calf fetal bovine serum (GIBCO), 100 unit/mL penicillin and 100 μg/mL streptomycin (hereinafter to be referred to as a growth medium), plated at 5000 cells/cm^2 and cultured at 37° C., under 5% CO2. • (2) When the cells reached subconfluence, the medium was exchanged with a high glucose Eagle's modified Dulbecco's medium (GIBCO) containing 2% horse serum (GIBCO) and penicillin, streptomycin and a test compound (hereinafter to be referred to as a differentiation medium), and the cells were cultured for 2 days. To the control group was added DMSO solution instead of the test compound. • (3) The cells were washed with PBS, 0.5% NP-40 solution was added thereto, and the cells were lysed by freeze-thawing. The cell extract was centrifuged, and the creatine kinase activity in the supernatant was measured as an index of muscle differentiation. The creatine kinase activity was measured using CPKII Test Wako (Wako Pure Chemical Industries, Ltd.) according to the manual of the kit. The tests using the compounds of Example 7 to Example 14 were corrected based on the total protein amount measured using CA Protein Assay Kit (Thermo Scientific).
The numerical values in Table 3 show CK activity of the compound addition group with the CK activity without addition of the compound as 100%, and 1 μM of the compound was added for the measurement.

[2] = test system: NF-kB; test: NF-kB activation suppressive action in muscle cell (luciferase reporter, TNF-α induced); format: cell-based, mouse; details: TNF-α 10 ng/mL, activity without TNF-α = 1, n=8
Protocol: • (1) C2C12 cells introduced with NF-kB reporter plasmid (C2C12/NF-kB-luc, Panomics) was plated at 20000 cells/cm^2, 100 μg/ml hygromycin was added thereto, and the cells were cultured in a growth medium in the same manner as in Example 1. • (2) The cells were cultured in a differentiation medium containing the compound of Example 1, Example 8, Example 9, Example 10 or Example 11 for 1 hr, TNF-α was added thereto such that the concentration is 10 ng/mL, and the cells were cultured for 4 hr. • (3) The luciferase activity in the medium was measured using a Stedy-Glo luciferase assay system (Promega). The NF-kB activity was evaluated by measuring the luciferase activity.
The data in Table 6 to Table 10 show mean±standard deviation at n=8 (n is the number of samples).

[3] = test system: differentiated C2C12 muscle cell; test: Sugar metabolism promoting activity in muscle cell (lactic acid production); format: cell-based, mouse; details: C2C12 myotube, 1 μM compound, 2 days; lactic acid concentration without compound = 100%
Protocol: • (1) In the same manner as in Experimental Example 1, C2C12 cell was cultured in a growth medium. When the cells reached subconfluence, the medium was exchanged with a differentiation medium, and the cells were cultured for 3 to 4 days while exchanging the medium every 2 or 3 days until the cells differentiated to form a myotube. • (2) After confirmation of myotube formation under a microscope, the compound (1 μM) was added to a differentiation medium and cultured for 2 days. The cells were washed with Krebs-Ringer HEPES phosphate buffer (10 mM HEPES, pH 7.4, 131 mM NaCl, 4.7 mM KCl, 2.5 mM CaCl2-2H2O, 1.2 mM MgSO4-7H2O, 1.2 mM KH2PO4), the medium was exchanged with Krebs-Ringer HEPES phosphate buffer containing 5 mM glucose, 0.2% fatty acid-free bovine serum albumin, and the cells were cultured at 37° C. for 4 hr. • (3) The lactic acid concentration of the culture supernatant was measured using Detarminer LA kit (Kyowa Medex Co., Ltd.).
The numerical values in Table 4 show the lactic acid concentration of the compound addition group with the lactic acid concentration without addition of the compound as 100%.

[4] = Anti-diabetes action in KKA^y mouse (glycohemoglobin); format: in vivo, female KKA^y mouse; details: 2 weeks, variation from value before administration, n=6
Protocol: Female KKA^y mice (12-13 week-old, CLEA Japan, Inc.) were bred allowing free ingestion of both feed and water. The mice were acclimation bred with powder CE-2 (CLEA Japan, Inc.) from 2 weeks before administration of the test compound. The body weight, blood glycohemoglobin % (GHb %) value, plasma glucose, triglyceride and total cholesterol concentration were measured, and the mice were divided into 3 groups or 5 groups (6 mice/group) such that those measurement values are uniform at the start of the administration. The compound was administered by mixing (0.01-0.03%) in the feed for 2 weeks. GHb % was measured on the last day. GHb % was measured using Tosoh Corporation automatic glycohemoglobin analyzer (HLC-723GHbV Alc2.2). The numerical values in Table 11 show the variation from the value before administration to the measured value after administration in mean±standard deviation at n=6 (n is the number of mice).

[5] = test system: 3T3-L1 cells; test: Adipocyte differentiation suppressive action (fat droplet quantification); format: cell-based
Protocol: 3T3-L1 cells (ATCC) were cultured in a growth medium until confluence. 1 μM dexamethasone, 0.5 mM 3-isobutyl-1-methylxanthine and 5 μg/mL insulin were added to the medium, and the cells were cultured for 3 days. The medium was exchanged with a growth medium containing 4 μg/mL insulin and the cells were cultured for 3 more days. When the compound (1 μM) was to be added, it was added after the cells reached confluence, and the cells were cultured for 6 days. After completion of the culture period, the fat droplet formed was quantified using Adipogenesis Assay Kit (CHEMICON). The numerical values in Table 12 show the relative value when without addition of the compound as 100% (n is the number of samples).

Structure (SMILES) | activity at 1 µM [1] [%] | NF-κB activity (multiple) ([2]; 0.001 μM compound) | NF-κB activity (multiple) ([2]; 0.003 μM compound) | NF-κB activity (multiple) ([2]; 0.01 μM compound) | NF-κB activity (multiple) ([2]; 0.03 μM compound) | NF-κB activity (multiple) ([2]; 0.1 μM compound) | NF-κB activity (multiple) ([2]; 0.3 μM compound) | NF-κB activity (multiple) ([2]; 1 μM compound) | NF-κB activity (multiple) ([2]; 3 μM compound) | NF-κB activity (multiple) ([2]; 10 μM compound) | lactic acid production promoting action (%) [3] [%] | also measured
CS(=O)(=O)Cc1ccc(NC(=O)/C=C/c2cnccc2-c2ccc(F)cc2)cc1 [Example 7, (2E)-3-[4-(4-fluorophenyl)pyridin-3-yl]-N-{4-[(methylsulfonyl)methyl]phenyl}prop-2-enamide] | 197 |  |  |  |  |  |  |  |  |  |  | 
O=C(/C=C/c1cnccc1-c1ccc(F)cc1)Nc1ccc(Cn2ccnc2)cc1 [Example 9, (2E)-3-[4-(4-fluorophenyl)pyridin-3-yl]-N-[4-(1H-imidazol-1-ylmethyl)phenyl]prop-2-enamide] | 208 | 11.8 | 13.0 | 12.1 | 13.1 | 13.0 | 10.2 | 8.4 | 7.6 | 6.9 |  | 
O=C(/C=C/c1cnccc1-c1ccc(F)cc1)Nc1ccc(OCc2nnco2)cc1 [Example 10, (2E)-3-[4-(4-fluorophenyl)pyridin-3-yl]-N-[4-(1,3,4-oxadiazol-2-ylmethoxy)phenyl]prop-2-enamide] | 164 | 10.0 | 10.2 | 10.5 | 10.5 | 9.6 | 7.8 | 7.5 | 6.9 | 6.2 |  | 
COc1ccc(-c2ncncc2/C=C/C(=O)Nc2ccc(CCc3nnco3)cc2)cc1 [Example 5, (2E)-3-[4-(4-methoxyphenyl)pyrimidin-5-yl]-N-{4-[2-(1,3,4-oxadiazol-2-yl)ethyl]phenyl}prop-2-enamide] | 290 |  |  |  |  |  |  |  |  |  | 233.3 | GHb change (%) ([4]; 0.03% mixed with feed): −0.3%
O=C(/C=C/c1cncnc1-c1ccc(F)cc1)Nc1ccc(CCc2nnco2)cc1 [Example 4, (2E)-3-[4-(4-fluorophenyl)pyrimidin-5-yl]-N-{4-[2-(1,3,4-oxadiazol-2-yl)ethyl]phenyl}prop-2-enamide] | 249 |  |  |  |  |  |  |  |  |  | 222.9 | GHb change (%) ([4]; 0.03% mixed with feed): −0.7%
Cc1nnc(CCc2ccc(NC(=O)/C=C/c3cnccc3-c3ccc(F)cc3)cc2)o1 [Example 3, (2E)-3-[4-(4-fluorophenyl)pyridin-3-yl]-N-{4-[2-(5-methyl-1,3,4-oxadiazol-2-yl)ethyl]phenyl}prop-2-enamide] | 249 |  |  |  |  |  |  |  |  |  | 175.4 | GHb change (%) ([4]; 0.03% mixed with feed): −0.3%
COP(=O)(Cc1ccc(NC(=O)/C=C/c2cnccc2-c2ccccc2)cc1)OC [Example 12, dimethyl (4-{[(2E)-3-(4-phenylpyridin-3-yl)prop-2-enoyl]amino}benzyl)phosphonate] | 189 |  |  |  |  |  |  |  |  |  |  | 
O=C(/C=C/c1cnccc1-c1ccc(F)cc1)Nc1ccc(CN2CCOCC2)cc1 [Example 6, (2E)-3-[4-(4-fluorophenyl)pyridin-3-yl]-N-[4-(morpholin-4-ylmethyl)phenyl]prop-2-enamide] | 299 |  |  |  |  |  |  |  |  |  | 216.7 | GHb change (%) ([4]; 0.02% mixed with feed): −1.2%
COP(=O)(Cc1ccc(NC(=O)/C=C/c2cnccc2-c2ccc(F)cc2)cc1)OC [Example 14, dimethyl [4-({(2E)-3-[4-(4-fluorophenyl)pyridin-3-yl]prop-2-enoyl}amino)benzyl]phosphonate] | 205 |  |  |  |  |  |  |  |  |  |  | 
O=C(/C=C/c1cnccc1-c1ccc(F)cc1)Nc1ccc(Cn2cnc3ccccc32)cc1 [Example 8, (2E)-N-[4-(1H-benzimidazol-1-ylmethyl)phenyl]-3-[4-(4-fluorophenyl)pyridin-3-yl]prop-2-enamide] | 197 | 9.4 | 9.7 | 10.8 | 10.6 | 9.4 | 7.6 | 7.1 | 6.6 | 6.1 |  | 
COc1ccc(-c2ccncc2/C=C/C(=O)Nc2ccc(CCc3nnco3)cc2)cc1 [Example 2, (2E)-3-[4-(4-methoxyphenyl)pyridin-3-yl]-N-{4-[2-(1,3,4-oxadiazol-2-yl)ethyl]phenyl}prop-2-enamide] | 211 |  |  |  |  |  |  |  |  |  | 168.3 | lipid accumulation amount in the cell in fat differentiation, result in words ([5]; 1 μM): decrease the lipid accumulation amount in the cell; lipid accumulation (%) ([5]; 1 μM compound, 6 days, without compound = 100%, n=2): 45%; GHb change (%) ([4]; 0.02% mixed with feed): −1%
CCOP(=O)(Cc1ccc(NC(=O)/C=C/c2cnccc2-c2ccccc2)cc1)OCC [Example 11, diethyl (4-{[(2E)-3-(4-phenylpyridin-3-yl)prop-2-enoyl]amino}benzyl)phosphonate] | 189 | 9.7 | 10.8 | 10.5 | 10.6 | 10.6 | 9.0 | 7.3 | 7.0 | 5.2 |  | 
CCOP(=O)(Cc1ccc(NC(=O)/C=C/c2cnccc2-c2ccc(F)cc2)cc1)OCC [Example 13, diethyl [4-({(2E)-3-[4-(4-fluorophenyl)pyridin-3-yl]prop-2-enoyl}amino)benzyl]phosphonate] | 184 |  |  |  |  |  |  |  |  |  |  | 
